In ChEMBL document CHEMBL2203267, “Synthesis, antioxidant and antimicrobial activity of novel vanillin derived piperidin-4-one oxime esters: preponderant role of the phenyl ester substituents on the piperidin-4-one oxime core” (Bioorg Med Chem Lett, 2012):
Blank lines part the entries; values can stand above or below the compound they belong to.

Key:
[1] = Antifungal activity against Chrysosporium keratinophilum MTCC 2827 at 500 ug/mL after 72 hrs by well plate method; assay type: functional
Staphylococcus aureus [2] = assay: Antibacterial activity against Staphylococcus aureus ATCC 25923 at 500 ug/mL after 24 hrs by well plate method; assay type: functional; details: ATCC 25923, 24 h, read-out: DIZ
Aspergillus flavus [3] = assay: Antifungal activity against Aspergillus flavus MTCC 3306 at 500 ug/mL after 72 hrs by well plate method; assay type: functional; details: MTCC 3306, 72 h, read-out: DIZ
Staphylococcus aureus [4] = assay: Antibacterial activity against Staphylococcus aureus ATCC 25923 at 1000 ug/mL after 24 hrs by well plate method; assay type: functional; details: ATCC 25923, 24 h, read-out: DIZ
Pseudomonas aeruginosa [5] = assay: Antibacterial activity against Pseudomonas aeruginosa ATCC 27853 at 500 ug/mL after 24 hrs by well plate method; assay type: functional; details: ATCC 27853, 24 h, read-out: DIZ
[6] = Antioxidant activity assessed as ABTS+ radical scavenging activity after 30 mins by UV-vis spectrophotometric analysis; assay type: functional
Candida albicans [7] = assay: Antifungal activity against Candida albicans MTCC 3017 at 500 ug/mL after 72 hrs by well plate method; assay type: functional; details: MTCC 3017, 72 h, read-out: DIZ
Liver microsomes = assay: Antioxidant activity in Wistar rat liver microsomes assessed as inhibition of lipid peroxidation after 60 mins by UV-vis spectrophotometric analysis; assay type: functional, Microsome
[8] = system: Radical scavenging activity; assay: Antioxidant activity assessed as DPPH radical scavenging activity after 20 mins by UV-vis spectrophotometric analysis; assay type: functional
Aspergillus flavus [9] = assay: Antifungal activity against Aspergillus flavus MTCC 3306 at 1000 ug/mL after 72 hrs by well plate method; assay type: functional; details: MTCC 3306, 72 h, read-out: DIZ
Escherichia coli [10] = assay: Antibacterial activity against Escherichia coli ATCC 25922 at 500 ug/mL after 24 hrs by well plate method; assay type: functional; details: ATCC 25922, 24 h, read-out: DIZ
[11] = Antifungal activity against Chrysosporium keratinophilum MTCC 2827 at 1000 ug/mL after 72 hrs by well plate method; assay type: functional
Pseudomonas aeruginosa [12] = assay: Antibacterial activity against Pseudomonas aeruginosa ATCC 27853 at 1000 ug/mL after 24 hrs by well plate method; assay type: functional; details: ATCC 27853, 24 h, read-out: DIZ
Candida albicans [13] = assay: Antifungal activity against Candida albicans MTCC 3017 at 1000 ug/mL after 72 hrs by well plate method; assay type: functional; details: MTCC 3017, 72 h, read-out: DIZ
Escherichia coli [14] = assay: Antibacterial activity against Escherichia coli ATCC 25922 at 1000 ug/mL after 24 hrs by well plate method; assay type: functional; details: ATCC 25922, 24 h, read-out: DIZ

IC50 [6]: 79 µM
IC50 (Liver microsomes): 82 µM
IC50 [8]: 76 µM
SMILES: COc1cc(C2CC(=NOC(=O)c3ccc([N+](=O)[O-])cc3)CC(c3ccc(O)c(OC)c3)N2C)ccc1O (stereo not given)
inhibition zone (IZ) [1]: 4 mm
zone of inhibition at 500 µg/mL (Staphylococcus aureus [2]): 5 mm
zone of inhibition at 500 µg/mL (Aspergillus flavus [3]): 3 mm
zone of inhibition at 1000 µg/mL (Staphylococcus aureus [4]): 8 mm
zone of inhibition at 500 µg/mL (Pseudomonas aeruginosa [5]): 5 mm
zone of inhibition at 500 µg/mL (Candida albicans [7]): 7 mm
zone of inhibition at 1000 µg/mL (Aspergillus flavus [9]): 4 mm
zone of inhibition at 500 µg/mL (Escherichia coli [10]): 4 mm
inhibition zone (IZ) [11]: 5 mm
zone of inhibition at 1000 µg/mL (Pseudomonas aeruginosa [12]): 8 mm
zone of inhibition at 1000 µg/mL (Candida albicans [13]): 6 mm
zone of inhibition at 1000 µg/mL (Escherichia coli [14]): 8 mm

IC50 [6]: 33 µM
IC50 (Liver microsomes): 40 µM
IC50 [8]: 28 µM
SMILES: COc1ccc(C(=O)ON=C2CC(c3ccc(O)c(OC)c3)N(C)C(c3ccc(O)c(OC)c3)C2)cc1 (stereo not given)
inhibition zone (IZ) [1]: 4 mm
zone of inhibition at 500 µg/mL (Staphylococcus aureus [2]): 2 mm
zone of inhibition at 500 µg/mL (Aspergillus flavus [3]): 5 mm
zone of inhibition at 1000 µg/mL (Staphylococcus aureus [4]): 4 mm
zone of inhibition at 500 µg/mL (Pseudomonas aeruginosa [5]): 3 mm
zone of inhibition at 500 µg/mL (Candida albicans [7]): 5 mm
zone of inhibition at 1000 µg/mL (Aspergillus flavus [9]): 6 mm
zone of inhibition at 500 µg/mL (Escherichia coli [10]): 2 mm
inhibition zone (IZ) [11]: 4 mm
zone of inhibition at 1000 µg/mL (Pseudomonas aeruginosa [12]): 4 mm
zone of inhibition at 1000 µg/mL (Candida albicans [13]): 7 mm
zone of inhibition at 1000 µg/mL (Escherichia coli [14]): 3 mm

IC50 [6]: 41 µM
IC50 (Liver microsomes): 52 µM
IC50 [8]: 32 µM
SMILES: COc1ccc(C(=O)ON=C2CC(c3ccc(O)c(OC)c3)N(C)C(c3ccc(O)c(OC)c3)C2)c(OC)c1 (stereo not given)
inhibition zone (IZ) [1]: 4 mm
zone of inhibition at 500 µg/mL (Staphylococcus aureus [2]): 3 mm
zone of inhibition at 500 µg/mL (Aspergillus flavus [3]): 4 mm
zone of inhibition at 1000 µg/mL (Staphylococcus aureus [4]): 5 mm
zone of inhibition at 500 µg/mL (Pseudomonas aeruginosa [5]): 6 mm
zone of inhibition at 500 µg/mL (Candida albicans [7]): 4 mm
zone of inhibition at 1000 µg/mL (Aspergillus flavus [9]): 5 mm
zone of inhibition at 500 µg/mL (Escherichia coli [10]): 4 mm
inhibition zone (IZ) [11]: 5 mm
zone of inhibition at 1000 µg/mL (Pseudomonas aeruginosa [12]): 6 mm
zone of inhibition at 1000 µg/mL (Candida albicans [13]): 6 mm
zone of inhibition at 1000 µg/mL (Escherichia coli [14]): 6 mm

IC50 [6]: 156 µM
IC50 (Liver microsomes): 165 µM
IC50 [8]: 141 µM
SMILES: COc1cc(C2CC(=NOC(=O)c3ccccc3)CC(c3ccc(O)c(OC)c3)N2C)ccc1O (stereo not given)
inhibition zone (IZ) [1]: 2 mm
zone of inhibition at 500 µg/mL (Staphylococcus aureus [2]): 3 mm
zone of inhibition at 500 µg/mL (Aspergillus flavus [3]): 1 mm
zone of inhibition at 1000 µg/mL (Staphylococcus aureus [4]): 4 mm
zone of inhibition at 500 µg/mL (Pseudomonas aeruginosa [5]): 1 mm
zone of inhibition at 500 µg/mL (Candida albicans [7]): 2 mm
zone of inhibition at 1000 µg/mL (Aspergillus flavus [9]): 2 mm
zone of inhibition at 500 µg/mL (Escherichia coli [10]): 2 mm
inhibition zone (IZ) [11]: 3 mm
zone of inhibition at 1000 µg/mL (Pseudomonas aeruginosa [12]): 2 mm
zone of inhibition at 1000 µg/mL (Candida albicans [13]): 3 mm
zone of inhibition at 1000 µg/mL (Escherichia coli [14]): 3 mm

IC50 [6]: 108 µM
IC50 (Liver microsomes): 112 µM
IC50 [8]: 103 µM
SMILES: COc1cc(C2CC(=NOC(=O)c3ccc(Br)cc3)CC(c3ccc(O)c(OC)c3)N2C)ccc1O (stereo not given)
inhibition zone (IZ) [1]: 5 mm
zone of inhibition at 500 µg/mL (Staphylococcus aureus [2]): 7 mm
zone of inhibition at 500 µg/mL (Aspergillus flavus [3]): 5 mm
zone of inhibition at 1000 µg/mL (Staphylococcus aureus [4]): 9 mm
zone of inhibition at 500 µg/mL (Pseudomonas aeruginosa [5]): 7 mm
zone of inhibition at 500 µg/mL (Candida albicans [7]): 8 mm
zone of inhibition at 1000 µg/mL (Aspergillus flavus [9]): 6 mm
zone of inhibition at 500 µg/mL (Escherichia coli [10]): 7 mm
inhibition zone (IZ) [11]: 7 mm
zone of inhibition at 1000 µg/mL (Pseudomonas aeruginosa [12]): 9 mm
zone of inhibition at 1000 µg/mL (Candida albicans [13]): 9 mm
zone of inhibition at 1000 µg/mL (Escherichia coli [14]): 11 mm

The remaining lines, values behind:

SMILES: COc1cc(C2CC(=NO)CC(c3ccc(O)c(OC)c3)N2C)ccc1O (stereo not given)
inhibition zone (IZ) [1]: 1 mm
zone of inhibition at 500 µg/mL (Staphylococcus aureus [2]): 0 mm
zone of inhibition at 500 µg/mL (Aspergillus flavus [3]): 0 mm
zone of inhibition at 1000 µg/mL (Staphylococcus aureus [4]): 1 mm
zone of inhibition at 500 µg/mL (Pseudomonas aeruginosa [5]): 0 mm
IC50 [6]: 158 µM
zone of inhibition at 500 µg/mL (Candida albicans [7]): 0 mm
IC50 (Liver microsomes): 167 µM
IC50 [8]: 144 µM
zone of inhibition at 1000 µg/mL (Aspergillus flavus [9]): 1 mm
zone of inhibition at 500 µg/mL (Escherichia coli [10]): 0 mm
inhibition zone (IZ) [11]: 1 mm
zone of inhibition at 1000 µg/mL (Pseudomonas aeruginosa [12]): 1 mm
zone of inhibition at 1000 µg/mL (Candida albicans [13]): 1 mm
zone of inhibition at 1000 µg/mL (Escherichia coli [14]): 1 mm

SMILES: COc1cc(C2CC(=NOC(=O)c3cc(O)c(O)c(O)c3)CC(c3ccc(O)c(OC)c3)N2C)ccc1O (stereo not given)
inhibition zone (IZ) [1]: 3 mm
zone of inhibition at 500 µg/mL (Staphylococcus aureus [2]): 4 mm
zone of inhibition at 500 µg/mL (Aspergillus flavus [3]): 2 mm
zone of inhibition at 1000 µg/mL (Staphylococcus aureus [4]): 6 mm
zone of inhibition at 500 µg/mL (Pseudomonas aeruginosa [5]): 3 mm
IC50 [6]: 11.8 µM
zone of inhibition at 500 µg/mL (Candida albicans [7]): 6 mm
IC50 (Liver microsomes): 16.1 µM
IC50 [8]: 10 µM
zone of inhibition at 1000 µg/mL (Aspergillus flavus [9]): 4 mm
zone of inhibition at 500 µg/mL (Escherichia coli [10]): 5 mm
inhibition zone (IZ) [11]: 4 mm
zone of inhibition at 1000 µg/mL (Pseudomonas aeruginosa [12]): 4 mm
zone of inhibition at 1000 µg/mL (Candida albicans [13]): 8 mm
zone of inhibition at 1000 µg/mL (Escherichia coli [14]): 7 mm

SMILES: COc1cc(C2CC(=NOC(=O)c3cc(OC)c(OC)c(OC)c3)CC(c3ccc(O)c(OC)c3)N2C)ccc1O (stereo not given)
inhibition zone (IZ) [1]: 3 mm
zone of inhibition at 500 µg/mL (Staphylococcus aureus [2]): 4 mm
zone of inhibition at 500 µg/mL (Aspergillus flavus [3]): 4 mm
zone of inhibition at 1000 µg/mL (Staphylococcus aureus [4]): 6 mm
zone of inhibition at 500 µg/mL (Pseudomonas aeruginosa [5]): 3 mm
IC50 [6]: 53 µM
zone of inhibition at 500 µg/mL (Candida albicans [7]): 3 mm
IC50 (Liver microsomes): 61 µM
IC50 [8]: 40 µM
zone of inhibition at 1000 µg/mL (Aspergillus flavus [9]): 3 mm
zone of inhibition at 500 µg/mL (Escherichia coli [10]): 4 mm
inhibition zone (IZ) [11]: 6 mm
zone of inhibition at 1000 µg/mL (Pseudomonas aeruginosa [12]): 5 mm
zone of inhibition at 1000 µg/mL (Candida albicans [13]): 3 mm
zone of inhibition at 1000 µg/mL (Escherichia coli [14]): 5 mm
